For experiment [1], the target named is T1, NAD-dependent protein deacetylase sirtuin-1 (Homo sapiens) (UniProt Q96EB6).
T1 sequence (whole entry): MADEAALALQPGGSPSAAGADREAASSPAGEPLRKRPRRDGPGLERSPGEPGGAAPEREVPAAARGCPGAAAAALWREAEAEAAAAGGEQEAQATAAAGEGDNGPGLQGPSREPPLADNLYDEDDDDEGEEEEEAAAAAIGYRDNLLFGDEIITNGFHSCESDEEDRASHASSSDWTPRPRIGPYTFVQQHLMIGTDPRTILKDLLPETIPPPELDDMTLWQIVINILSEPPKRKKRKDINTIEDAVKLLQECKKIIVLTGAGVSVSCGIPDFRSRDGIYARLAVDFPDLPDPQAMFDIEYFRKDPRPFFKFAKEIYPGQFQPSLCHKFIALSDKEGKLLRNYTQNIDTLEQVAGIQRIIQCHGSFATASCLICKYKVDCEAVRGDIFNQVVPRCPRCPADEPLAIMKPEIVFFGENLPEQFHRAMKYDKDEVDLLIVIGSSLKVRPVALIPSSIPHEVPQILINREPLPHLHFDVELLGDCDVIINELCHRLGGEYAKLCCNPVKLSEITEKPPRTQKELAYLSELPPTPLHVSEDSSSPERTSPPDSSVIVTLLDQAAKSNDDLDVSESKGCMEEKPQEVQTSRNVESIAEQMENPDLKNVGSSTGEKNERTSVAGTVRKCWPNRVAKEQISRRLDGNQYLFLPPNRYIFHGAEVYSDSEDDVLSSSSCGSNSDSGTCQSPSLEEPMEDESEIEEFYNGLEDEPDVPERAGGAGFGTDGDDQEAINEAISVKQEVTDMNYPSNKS
As to the kind of experiment: (§1) Binding affinity to SIRT1 (unknown origin) by surface plasmon resonance assay. The conditions noted are these: filed as activator. A general note: Surface plasmon resonance follows binding to a sensor surface in real time, without labels.

In experiment [2] the target is T2, NAD-dependent protein deacetylase sirtuin-1 (Homo sapiens, UniProt Q96EB6).
T2 sequence (Q96EB6 whole entry): T1 sequence (whole entry)
The description is as §1.

Experiment [3] concerns the target T1, NAD-dependent protein deacetylase sirtuin-1 (Homo sapiens). Nature of the experiment: Binding affinity to SIRT1 in human HepG2 cells assessed as increase in protein abundance at 80 to 320 uM pretreated with compound for 30 mins followed by proteolysis for 15 mins by DARTS assay. The conditions noted are these: filed as activator, dose 80-320 µM, time 45.0 min. It counts as cell-based.

For experiment [4], the target named is T3, Peroxisome proliferator-activated receptor gamma coactivator 1-alpha (Homo sapiens) (UniProt Q9UBK2).
T3 sequence (whole entry): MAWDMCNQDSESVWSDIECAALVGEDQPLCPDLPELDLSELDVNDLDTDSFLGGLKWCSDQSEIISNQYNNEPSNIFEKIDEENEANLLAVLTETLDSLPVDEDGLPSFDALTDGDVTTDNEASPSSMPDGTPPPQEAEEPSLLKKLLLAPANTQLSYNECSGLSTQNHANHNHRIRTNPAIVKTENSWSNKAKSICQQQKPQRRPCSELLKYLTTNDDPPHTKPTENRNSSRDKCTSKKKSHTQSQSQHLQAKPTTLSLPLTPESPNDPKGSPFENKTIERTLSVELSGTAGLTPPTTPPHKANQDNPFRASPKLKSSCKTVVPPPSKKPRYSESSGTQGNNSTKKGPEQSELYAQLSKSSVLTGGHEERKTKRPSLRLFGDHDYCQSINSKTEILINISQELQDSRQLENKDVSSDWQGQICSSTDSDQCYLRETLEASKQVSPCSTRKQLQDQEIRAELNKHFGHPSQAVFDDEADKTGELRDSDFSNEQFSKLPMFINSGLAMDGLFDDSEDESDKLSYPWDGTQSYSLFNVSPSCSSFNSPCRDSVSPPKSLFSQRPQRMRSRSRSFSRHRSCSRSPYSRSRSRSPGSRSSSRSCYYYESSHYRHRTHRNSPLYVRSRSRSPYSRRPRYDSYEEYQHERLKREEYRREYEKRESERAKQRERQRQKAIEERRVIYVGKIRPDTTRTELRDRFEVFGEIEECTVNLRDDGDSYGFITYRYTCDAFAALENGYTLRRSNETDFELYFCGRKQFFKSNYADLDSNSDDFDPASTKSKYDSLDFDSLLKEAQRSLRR
As to the kind of experiment: Binding affinity to PGC1alpha in human HepG2 cells assessed as increase in thermal stability of protein pretreated with compound for 30 mins followed by incubation at 50 degC for 3 mins by CETSA-WB analysis. In kind it is cell-based. The settings on record: filed as activator, dose 80-320 µM, time 33.0 min.

The test system of experiment [5] is HepG2. As to the kind of experiment: Recovery of mitochondrial biogenesis in 40% FBS-induced steatosis human HepG2 cells model assessed as increase in TFAM protein expression incubated for 24 hrs by western blot analysis. It counts as functional, cell-based. The settings on record: dose 0.2-5 µM. In general terms: Immunoblotting shows a protein as a band on a membrane.

Experiment [6] relates to HepG2. Nature of the experiment: Inhibition of mitochondrial membrane potential dissipation in 40% FBS-induced steatosis human HepG2 cells model assessed as increase in mitochondrial membrane potential incubated in steatosis inducing DMEM with 40% FBS medium for 24 hrs followed by compound treatment by JC-1 staining based fluorescence microscopy. In kind it is functional, cell-based. The settings on record: Mitochondria, dose 0.2-5 µM.

Experiment [7] has as its system HepG2. As to the kind of experiment: Inhibition of lipid toxicity in 40% FBS-induced steatosis human HepG2 cells model assessed as decrease in lipid accumulation at 0.2 to 5 uM incubated in steatosis inducing DMEM with 40% FBS medium for 24 hrs followed by compound treatment by Oil red O staining based analysis. The settings on record: dose 0.2-5 µM. In kind it is functional, cell-based.

The subject of experiment [8] is HepG2. As to the kind of experiment: Inhibition of lipid toxicity in 40% FBS-induced steatosis human HepG2 cells model assessed as decrease in triglyceride content at 0.2 to 5 uM incubated with compound for 24 hrs followed by replacement with steatosis inducing DMEM with 40% FBS medium. In kind it is functional, cell-based. The settings on record: dose 0.2-5 µM.
In experiment [9] the test system is HepG2. As to the kind of experiment: Inhibition of liver injury in 40% FBS-induced steatosis human HepG2 cells model assessed as decrease in GDH level at 0.2 to 5 uM incubated in steatosis inducing DMEM with 40% FBS medium for 24 hrs followed by compound treatment. The conditions noted are these: dose 0.2-5 µM. It counts as functional, cell-based.
For experiment [10], the system named is Rattus norvegicus. As to the kind of experiment: Hepatoprotective activity against high fat diet-fed NAFLD Sprague-Dawley rat model assessed as decrease in liver index administered intragastrically via gavage for 4 weeks. It counts as functional, organism-based. The settings on record: dose 12.3-61.4 mg/kg, route ig.
The subject of experiment [11] is Rattus norvegicus. Nature of the experiment: Hepatoprotective activity against high fat diet-fed NAFLD Sprague-Dawley rat model assessed as decrease in serum triglyceride content administered intragastrically via gavage for 4 weeks. It counts as functional, organism-based. The conditions noted are these: dose 12.3-61.4 mg/kg, route ig.
The subject of experiment [12] is Rattus norvegicus. Nature of the experiment: Hepatoprotective activity against high fat diet-fed NAFLD Sprague-Dawley rat model assessed as less ballooning degeneration and smaller fatty droplets in hepatocytes at 12.3 to 61.4 mg/kg, IG administered via gavage for 4 weeks by Hematoxylin-Eosin staining based analysis. In kind it is functional, organism-based. The settings on record: dose 12.3-61.4 mg/kg.

Experiment [13] deals with Rattus norvegicus. Nature of the experiment: Hepatoprotective activity against high fat diet-fed NAFLD Sprague-Dawley rat model assessed as decrease in serum ALT level administered intragastrically via gavage for 4 weeks. It counts as functional, organism-based. The conditions noted are these: dose 12.3-61.4 mg/kg, route ig.
The test system of experiment [14] is Rattus norvegicus. As to the kind of experiment: Hepatoprotective activity against high fat diet-fed NAFLD Sprague-Dawley rat model assessed as decrease in serum LDH level administered intragastrically via gavage for 4 weeks. It counts as functional, organism-based. The conditions noted are these: dose 12.3-61.4 mg/kg, route ig.
For experiment [15], the system named is Rattus norvegicus. As to the kind of experiment: Hepatoprotective activity against high fat diet-fed NAFLD Sprague-Dawley rat model assessed as decrease in serum AKP level administered intragastrically via gavage for 4 weeks. It counts as functional, organism-based. The settings on record: dose 12.3-61.4 mg/kg, route ig.
In experiment [16] the test system is HepG2. As to the kind of experiment: Induction of mitochondrial biogenesis in human HepG2 cells assessed as TFAM protein expression incubated for 24 hrs in presence of SIRT1 inhibitor, EX527 by western blot analysis. It counts as functional, cell-based.
The subject of experiment [17] is HepG2. As to the kind of experiment: Induction of mitochondrial biogenesis in human HepG2 cells assessed as mitochondrial ND6 mRNA expression incubated for 24 hrs in presence of SIRT1 inhibitor, EX527 by qRT-PCR analysis. It counts as functional, cell-based. In general terms: Quantitative PCR measures a nucleic acid by following its amplification.

Active and inactive are the calls of the source. No cut-off for these calls is given here.

A word on the Kd: it is the concentration at which binding is half-saturated. A low value points to a tighter complex. As for `CC(C)(C)c1ccc(C(=O)c2ccc(O)c(O)c2)cc1`, the Activity result in experiment [1], in [4], in experiment [5], in [10] and in experiment [11] was “Dose-Dependent Effect” each time. This compound displayed a dissociation constant Kd in experiment [2] of 77.3 µM. Also, the result in experiment [3], in experiment [12], in [13], in [14] and in experiment [15] was Active. In addition, the inhibition result in experiment [6] is “Dose-Dependent Effect”. Also, the inhibition result in experiment [7], in experiment [8] and in experiment [9] was “Active” each time. Besides, the outcome in [16] and in [17] was inactive.
